Experimental data published in patent US20230181746A1, “BENZOYLHYDRAZIDE-DERIVED HDAC DEGRADERS AS THERAPEUTICS FOR TREATING CANCER AND OTHER HUMAN DISEASES” (University of Florida Research Foundation, Inc., priority 2020, published 2023).

How the values were obtained:
HDAC2 [1] = biological target: T1, HDAC2 (Homo sapiens, UniProt Q92769); experiment: In vitro HDAC activity assay (HDAC-Glo I/II), HDAC2; format: biochemical; parameters: purchased BPS Bioscience 50002; details: average of three independent assays ± standard deviation
Procedure: (§1) Purified HDAC1, HDAC2, and HDAC3 (in complex with the deacetylase activation domain of the human NCOR2 (amino acids 395-498)) were obtained from Enzo Life Sciences (HDAC1, catalog # BML-SE456-0050) and BPS Bioscience (HDAC2, catalog #50002 and HDAC3, catalog #50003), respectively. The enzyme activities were tested using the HDAC-Glo I/II reagents (Promega) according to a protocol provided by the manufacturer.

MDA-MB-468 cells = experiment: Cell viability assay (CellTiter-Glo); format: cell-based
Procedure: MDA-MB-468, MDA-MB-231, and T47D cells were treated with the indicated compounds at different concentrations for 72 h. Cell viability was assessed with CellTiter-Glo® reagents.
(§2) Cell lines were obtained from ATCC and subsequently authenticated. Cells were cultured with DMEM supplemented with 10% bovine calf serum, penicillin to 10 units/mL, and streptomycin to 10 μg/mL. For viability assays, 5,000 cells/well were seeded in 96-well plates. Compounds at a specified concentration or DMSO were added 24 h later. Viability assays were performed 72 h after compound addition using the CellTiter-Glo reagents (Promega). For colony formation assay, cells (˜1,000 cells/well) were seeded in a 24-well plate in quadruplicates. At 24 h after seeding, DMSO, XZ9002, or XZ9002-NC were added at a specified concentration. Medium was replaced with freshly prepared medium containing DMSO, XZ9002 or XZ9002-NC every five days until visible colonies appeared, typically in 15 to 20 days after initial cell seeding. Cells were fixed with 4% paraformaldehyde for 15 min and stained with 2% methylene blue in 20% ethanol for 30 min to 1 h. The cells were washed twice with distilled water and dried in air. For western blotting, cell cultures were exposed to compounds as indicated in relevant figures. Medium was removed from culture plate, and 1 x passive lysis buffer was then added, the plates were frozen at −80° C. overnight and thawed at room temperature. The total cell lysates were mixed with a one fifth volume of 6x SDS sample buffer, heated at 95° C. for 5 min and cooled on ice. The lysates were cleared by centrifugation and then subjected to SDS-PAGE and western blotting essentially as described. […]

HDAC1 = HDAC1 (Homo sapiens, UniProt Q13547); experiment: In vitro HDAC activity assay (HDAC-Glo I/II), HDAC1; format: biochemical; parameters: purchased Enzo Life Sciences BML-SE456-0050; details: average of three independent assays ± standard deviation
Procedure: as §1

[2] = biological target: T2, HDAC3 (in complex with the deacetylase activation domain of the human NCOR2 (amino acids 395-498)) (Homo sapiens, UniProt O15379); experiment: In vitro HDAC activity assay (HDAC-Glo I/II), HDAC3; format: biochemical; details: for IC50: HDAC-Glo I/II, average of three independent assays ± standard deviation
T2 construct: purchased BPS Bioscience 50003
Procedure: as §1

HDAC2 [3] = biological target: T1, HDAC2; experiment: HDAC2 protein level in breast cancer cell lines, Western blot; format: cell-based; details: MCF7 cells, 4 h (FIG. 8A)
Procedure: FIG. 3A: Western blot showing HDAC protein levels in MDA-MB-468 cells treated with the indicated concentration of XZ9002 for 14 h. FIG. 3B: pretreatment with 1 μM MG132, or 10 μM VHL032 for 1 h blocked the degradation of HDAC3 by XZ9002 {125 nM}. […] NC: XZ9002-NC. FIG. 3C: time-dependent experiment in MDA-MB-468 cells after treatment with 125 nM XZ9002 at the indicated time points. FIG. 3D: MDA-MB-468 cells were incubated with 125 nM of XZ9002 for 14 h followed by drug washout, and incubation of the cells in drug-free medium for an additional time. Data are presented as representative figures of two independent experiments.
The culture of the triple-negative breast cancer cell line MDA-MB-468 and the ER+ breast cancer cell line T47D was exposed to vehicle control (DMSO) and the indicated compounds at specified concentrations for 14 h. Cells were lysed for WB with antibodies against the indicated proteins. Antibodies against acetylated histones at specific sites (H3K27 and H4K5) and acetyl-lysine were used to assess levels of histone acetylation. Levels of HDAC3 were normalized against that of tubulin and % of HDAC3 protein levels in cells treated with the indicated compounds relative to that in DMSO control is shown.
FIGS. 8A-8B show the cellular activity of XZ9002. […] Cells were lysed for WB. The relative HDAC3 protein level in each sample is shown. […]

HDAC3 = HDAC3 (Homo sapiens, UniProt O15379); experiment: HDAC3 degradation in breast cancer cell lines, Western blot; format: cell-based; parameters: endogenous in cells; host or cells: MDA-MB-468, T47D, MCF7; details: MCF7 cells, 4 h (FIG. 8A)
Source text: Data are presented as representative figures of two independent experiments.
Cells were lysed for WB with antibodies against the indicated proteins. Antibodies against acetylated histones at specific sites (H3K27 and H4K5) and acetyl-lysine were used to assess levels of histone acetylation.
Cells were lysed for WB. […] The indicated BC cell lines were exposed to DMSO, XZ9002, or XZ9002-NC at the indicated concentrations. Colonies were fixed and stained.
Cell lines were obtained from ATCC and subsequently authenticated. Cells were cultured with DMEM supplemented with 10% bovine calf serum, penicillin to 10 units/mL, and streptomycin to 10 μg/mL. For viability assays, 5,000 cells/well were seeded in 96-well plates. […] For colony formation assay, cells (˜1,000 cells/well) were seeded in a 24-well plate in quadruplicates. […] Medium was replaced with freshly prepared medium containing DMSO, XZ9002 or XZ9002-NC every five days until visible colonies appeared, typically in 15 to 20 days after initial cell seeding. Cells were fixed with 4% paraformaldehyde for 15 min and stained with 2% methylene blue in 20% ethanol for 30 min to 1 h. The cells were washed twice with distilled water and dried in air. For western blotting, cell cultures were exposed to compounds as indicated in relevant figures. Medium was removed from culture plate, and 1 x passive lysis buffer was then added, the plates were frozen at −80° C. overnight and thawed at room temperature. The total cell lysates were mixed with a one fifth volume of 6x SDS sample buffer, heated at 95° C. for 5 min and cooled on ice. The lysates were cleared by centrifugation and then subjected to SDS-PAGE and western blotting essentially as described.

[4] = test system: non-small cell lung cancer (NSCLC) cell line H1299; experiment: Clonogenic growth assay, H1299; format: cell-based; details: H1299, treatment for 10 days
Procedure: H1299 cells were exposed to DMSO, or 28c at the indicated concentrations. Colonies were fixed and stained after treatment for 10 days.
as §2, with “temperature.” for “temperature. The total cell lysates were mixed with a one fifth volume of 6x SDS sample buffer, heated at 95° C. for 5 min and cooled on ice. The lysates were cleared by centrifugation and then subjected to SDS-PAGE and western blotting essentially as described.”

T1 sequence (Q92769 whole entry, the tested form may be a part): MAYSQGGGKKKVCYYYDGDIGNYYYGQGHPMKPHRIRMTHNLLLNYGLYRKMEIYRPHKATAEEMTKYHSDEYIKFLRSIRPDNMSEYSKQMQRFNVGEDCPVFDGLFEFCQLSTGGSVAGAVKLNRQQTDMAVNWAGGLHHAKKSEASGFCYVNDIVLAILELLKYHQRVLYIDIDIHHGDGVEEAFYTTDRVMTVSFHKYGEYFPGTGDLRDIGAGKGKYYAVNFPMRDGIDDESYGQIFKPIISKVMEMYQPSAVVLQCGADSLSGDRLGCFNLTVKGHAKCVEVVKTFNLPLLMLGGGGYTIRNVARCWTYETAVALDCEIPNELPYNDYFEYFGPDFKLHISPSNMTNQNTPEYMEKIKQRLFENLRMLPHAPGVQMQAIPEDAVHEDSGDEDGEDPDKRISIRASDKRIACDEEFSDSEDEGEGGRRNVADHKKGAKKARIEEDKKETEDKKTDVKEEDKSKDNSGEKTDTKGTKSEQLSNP
T2 sequence (O15379 whole entry, the tested form may be a part): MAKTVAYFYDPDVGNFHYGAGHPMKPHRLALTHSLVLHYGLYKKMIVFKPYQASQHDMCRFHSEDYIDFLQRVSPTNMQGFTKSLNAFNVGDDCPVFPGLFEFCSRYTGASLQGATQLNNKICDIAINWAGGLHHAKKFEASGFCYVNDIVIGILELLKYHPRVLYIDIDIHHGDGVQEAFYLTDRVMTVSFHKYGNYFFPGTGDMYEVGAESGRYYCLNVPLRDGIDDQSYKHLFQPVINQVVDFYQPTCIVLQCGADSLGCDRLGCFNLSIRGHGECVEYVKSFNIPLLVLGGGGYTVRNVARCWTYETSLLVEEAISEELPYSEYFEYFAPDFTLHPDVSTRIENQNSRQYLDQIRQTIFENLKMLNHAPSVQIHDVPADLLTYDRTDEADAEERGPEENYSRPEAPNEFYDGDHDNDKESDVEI
T2 sequence (Q9Y618 395-498 partner limits assumed): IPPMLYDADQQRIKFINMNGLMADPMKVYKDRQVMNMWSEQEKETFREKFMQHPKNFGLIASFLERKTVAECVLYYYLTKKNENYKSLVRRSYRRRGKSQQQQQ
Sequence of HDAC1 (Q13547 whole entry): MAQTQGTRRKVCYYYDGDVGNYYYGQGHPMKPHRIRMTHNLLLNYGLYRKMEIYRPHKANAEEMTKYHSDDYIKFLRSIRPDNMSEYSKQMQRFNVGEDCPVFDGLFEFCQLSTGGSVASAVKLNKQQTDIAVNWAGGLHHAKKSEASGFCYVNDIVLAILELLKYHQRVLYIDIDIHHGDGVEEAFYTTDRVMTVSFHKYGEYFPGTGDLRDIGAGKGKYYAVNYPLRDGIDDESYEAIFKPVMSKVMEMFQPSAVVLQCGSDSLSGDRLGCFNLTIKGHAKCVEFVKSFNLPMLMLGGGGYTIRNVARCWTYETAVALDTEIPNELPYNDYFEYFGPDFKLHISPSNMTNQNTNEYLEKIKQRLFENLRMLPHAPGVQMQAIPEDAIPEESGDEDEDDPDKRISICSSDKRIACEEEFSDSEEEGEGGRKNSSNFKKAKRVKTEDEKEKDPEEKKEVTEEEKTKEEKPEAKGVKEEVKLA
Sequence of HDAC3 (O15379 whole entry): as the sequence (O15379 whole entry, the tested form may be a part) above
Sequence of HDAC3 (Q9Y618 395-498 partner limits assumed): as the sequence (Q9Y618 395-498 partner limits assumed) above

| Compound | IC50 (HDAC2 [1]) | antiproliferative activity (in words) (MDA-MB-468 cells; MDA-MB-468, 72 h, similar trends in MDA-MB-231 and T47D cells) | IC50 (HDAC1) | IC50 [2] | IC50 (MDA-MB-468 cells; Homo sapiens, MDA-MB-468 cell line, 72 h, CellTiter-Glo, read-out: IC50 cytotoxicity (cell viability)) | HDAC2 degradation (in words) (HDAC2 [3]) | preference for HDAC3 ([2]; against the other tested HDAC isoforms) | HDAC3 degradation (in words) (HDAC3) | inhibition of clonogenic growth [4] |
| --- | --- | --- | --- | --- | --- | --- | --- | --- | --- |
| CCCNNC(=O)c1ccc(-c2ccc(NC(=O)CCCCC(=O)N[C@H](C(=O)N3C[C@H](O)C[C@H]3C(=O)N[C@@H](C)c3ccc(-c4scnc4C)cc3)C(C)(C)C)cc2)cc1 [Compound 8b, N^1—((S)-1-((2S,4R)-4-Hydroxy-2-(((S)-1-(4-(4-methylthiazol-5-yl)phenyl)ethyl)carbamoyl)pyrrolidin-1-yl)-3,3-dimethyl-1-oxobutan-2-yl)-N^6-(4′-(2-propylhydrazine-1-carbonyl)-[1,1′-biphenyl]-4-yl)adipamide] | 1650 ± 70 nM | decreased antiproliferative activity | 360 ± 60 nM | 320 ± 30 nM | – | – | – | – | – |
| CCCNNC(=O)c1ccc(-c2ccc(NC(C)=O)cc2)cc1 [Compound 15, N-(4′-(2-propylhydrazine-1-carbonyl)[1,1′-biphenyl]-4-yl)acetamide] | 82 ± 25 nM | – | 72 ± 10 nM | 13 ± 1 nM | 990 nM | does not significantly degrade | ≥ 13 fold | does not significantly degrade | – |
| CCCNNC(=O)c1ccc(N2CCN(CCCCCCCC(=O)N[C@H](C(=O)N3C[C@H](O)C[C@H]3C(=O)N[C@@H](C)c3ccc(-c4scnc4C)cc3)C(C)(C)C)CC2)cc1 [Compound 28c, (2S,4R)-1-((S)-3,3-dimethyl-2-(8-(4-(4-(2-propylhydrazine-1-carbonyl)phenyl)piperazinyl)octanamido)butanoyl)-4-hydroxy-N—((S)-1-(4-(4-methylthiazol-5-yl)phenyl)ethyl)pyrrolidine carboxamide] | – | – | – | – | – | – | – | – | effective to inhibit clonogenic growth |
